{"source": "paper PMC8961585", "about": "“Inhibition of Polyglutamine Misfolding with D-Enantiomeric Peptides Identified by Mirror Image Phage Display Selection” (Biomolecules, 2022)", "key": {"[1]": {"assay": "Spontaneous aggregation of polyglutamine peptides (ThT)", "type": "physicochemical", "settings": "no inhibitor, TBS pH 7.5, 37 °C", "method": "(§1) Following the disaggregation protocol that Chen et al. published, the polyglutamine proteins were incubated for three days in 1:1 TFA/Hexafluoroisopropanol (HFIP) or overnight in 100% trifluoroacetic acid (TFA). Afterwards the solvent was evaporated with N2 gas treatment and the polyglutamine protein redissolved in the experiment buffer.\n(§2) Thioflavin T (ThT) assays were performed to monitor the time-dependent formation of amyloidogenic aggregates. The assays were performed at 37 °C in TBS pH 7.5 (15 µM ThT) with 300 rpm double orbital shaking. All buffers were sterile filtrated beforehand. Polyglutamine proteins were disaggregated as described before. The peptides were pre-diluted in TBS pH 7.5. The disaggregated polyglutamine protein in buffer was mixed with 15 µM ThT and the pre-diluted peptides in a 96-well half-area flat-bottom microplate (Corning, New York, NY, USA). During the experiment all wells contained 100 µL ThT solution. Sealing the plate with foil (Thermo Fisher Scientific, Waltham, MA, USA) helped to prevent evaporation. The progression of fluorescence intensity was tracked by a microplate reader (BMG Labtech, Ortenberg, Germany).\n(§3) Figure 1 Disaggregation of ARQ46; Examination of ARQ46 post disaggregation. […] (B) ThT-Measurement of 15 µM ARQ46, disaggregated with 1:1 TFA/HFIP, in TBS pH 7.5 measured at 37 °C."}, "[2]": {"assay": "CD secondary structure of polyglutamine peptides", "type": "physicochemical", "method": "as §1\nAfter disaggregation, polyglutamine proteins were dissolved in TBS pH 7.5 and measured in a quartz crystal cuvette with 1 mm light path (Hellma Analytics, Müllheim, Germany) in a CD spectrometer (J-1100, Jasco Deutschland GmbH, Pfungstadt, Germany) with 4 acquisitions. The High tension voltage (HT) was monitored throughout the experiment. Data for which the HT exceeded 600 V were excluded. Buffer measurements served as references. Analogous, samples containing 50 µM ARQ46 and 50 µM QF2D-1 or QF2D-2 were measured and referenced with the measurement of 50 µM QF2D-1 or QF2D-2 alone. […] The CD spectra of the samples were monitored after 24 h, 48 h and 168 h of aggregation.\nas §3\nFigure 2 CD-spectrum of D-ARQ23 disaggregated with 100% TFA; Prior to the phage display selection D-ARQ23 was disaggregated with TFA to ensure selection on monomeric target. CD-spectrum was recorded in 10 mM Tris pH 8."}, "L-ARQ46 [3]": {"biological_target": "T1, L-ARQ46 (Homo sapiens, UniProt P10275)", "T1 construct": "L-ARQ46; purchased peptides & elephants GmbH (Henningsdorf, Germany); host or cells: chemical synthesis", "T1 sequence (P10275 with tags, fused parts or gaps)": "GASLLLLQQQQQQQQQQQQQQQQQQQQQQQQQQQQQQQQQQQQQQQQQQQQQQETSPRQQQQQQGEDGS", "assay": "ThT aggregation assay, monomeric ARQ46, unseeded", "type": "biochemical", "method": "as §1, §2\nThe lag-time was estimated as follows: the average variation of the curve was determined with the last ten values of the steady state. […]\nThe progression of fluorescence intensity was measured every 30 min at λex = 410 nm and λem = 482 nm with 30 s agitation at 300 rpm before every measurement. (A) Fluorescence intensity measured at 90 h of the aggregation assay starting with 15 µM monomeric ARQ46 without peptide and with 15 µM QF2D-1, QF2D-2, QF2D-3, QF2D-4, QF2D-5, QF2D-6, QF2D-7, QF2D-8 or QF2D-9. […] The mean fluorescence intensity is shown for each time point. […]\nFigure 8 Effect of different QF2D-2 concentrations on the aggregation of ARQ46; ThT assay with L-ARQ46 was performed at 37 °C in TBS pH 7.5. The progression of fluorescence intensity was measured every 30 min at λex = 410 nm and λem = 482 nm with 30 sec agitation at 300 rpm before every measurement. […] The mean fluorescence intensity is shown for each time point. […]"}, "L-ARQ46 [4]": {"biological_target": "T1, L-ARQ46", "assay": "ThT aggregation assay of ARQ46 seeded with soluble aggregate fragments", "type": "biochemical", "settings": "15 µM ARQ46", "method": "as §1, §2\nFor seeded experiments, the slope of the curve was considered instead of the lag-time because seeding eliminated the lag-time. The slope was determined by plotting the first values and fitting with a linear fit. The considered period (2 to 3.5 h) was similar for the curves compared with.\nThe disaggregated ARQ46 was diluted to 300 µM and incubated at 37 °C, 400 rpm. After 24 h large, white aggregates were visible in the tube. The sample was sonicated (Sonopuls, Bandelin electronic GmbH & Co. KG, Berlin, Germany) four times for 15 s with an amplitude of 60%. Between the sonification steps the sample was cooled on ice. Post sonification the sample was turbid. It was centrifuged at 100,000 g for 1 h at 4 °C to remove insoluble aggregates from the solution. The clear supernatant was used for seeding with soluble aggregate fragments.\nFigure 5 QF2D-1, QF2D-2 and QF2D-6 inhibit the aggregation of ARQ46 in presence of soluble aggregate fragment seeds; ARQ46 was aggregated, and the solution was subject to spinning at 100,000 g in an ultracentrifuge. The supernatant was preincubated with 15 µM and 7.5 µM of one of the selected compounds in TBS at 37 °C. After 23 h, 15 µM monomeric ARQ46 were added, and the fluorescence intensity was measured every 15 min at λex = 448 nm and λem = 482 nm with agitation at 300 rpm between measurements. P8 served as a control compound that was not selected on polyglutamine, whereas QBP1 is claimed to bind polyglutamine tracts and inhibit polyglutamine-driven aggregation. (A) Fluorescence intensity of P8, QBP1, QF2D-1, QF2D-2 and QF2D-6 in equimolar and sub stoichiometric ratio at 90 h. (B) The data points acquired between 24 h and 26 h- shortly after monomer addition- were fitted with a linear fit. The slope was compared. (C) Measurement example of the described ThT-assay with ARQ46 (black), P8 (light grey), QBP1 (grey) and QF2D-2 (dark grey). The mean fluorescence intensity is shown for each time point. The experiment was performed in two-fold determination."}, "Drosophila": {"system": "Drosophila", "parameters": "method as in PMID 12761040", "settings": "cited from earlier work"}, "[5]": {"system": "polyglutamine disease mouse model", "parameters": "method as in PMID 18603372, PMID 23226463, PMID 23504628", "settings": "cited from earlier work"}, "polyglutamine proteins": {"system": "polyglutamine proteins", "settings": "cited from earlier work", "text": "Patients suffering from polyglutamine diseases present with aggregates in their neurons before symptom onset and therefore probably also before treatments start. Thus, a promising drug candidate should inhibit the aggregation in presence of pre-formed aggregates. […] The effects of the compounds were compared with two controls. The first, P8, has been selected on SOD1 and should not bind to polyg ..."}, "L-ARQ46 [6]": {"biological_target": "T1, L-ARQ46", "assay": "SPR binding to immobilized L-ARQ46", "settings": "L-ARQ46 immobilized on CM5 chip via amine coupling (1400 RU); steady state affinity fit; TBS pH 7.5, 0.05% Tween, 25 °C; multi-cycle, up to 20 µM; data not shown", "method": "Binding studies were performed with surface plasmon resonance (SPR) in a Biacore T200 device (Biacore, GE Healthcare, Uppsala, Sweden). The L-ARQ46 was immobilized on a CM5 Chip via amine coupling (1400 RU). The selected D-enantiomeric peptide compound QF2D-2 was dissolved in the running buffer (TBS pH 7.5 with 0.05% Tween) and served as the analyte in multi-cycle experiments, with the highest peptide concentration being 20 µM. Experiments were performed at 25 °C with a flow rate of 45 µL/min. After a contact time of 110 s and a dissociation time of 400 s, the surface was regenerated with low pH (Glycin-HCl, pH 2.2) for 30 s with a flow rate of 30 µL/min. The data were evaluated via affinity fit of the steady state using the biacore evaluation software."}, "[7]": {"settings": "soluble aggregate seeds, slope 24 to 26 h, peptide concentration not stated (15 or 7.5 µM)"}}, "note": "pKd: −log10 of the molar value."}
{"compound": "KKQQQQQQQQQQQQQQQQQQQQQQQ QQQQQQQQQQQQQQQQQQQQQQQKK [L-K2Q46K2, universal polyglutamine peptide]", "values": [{"measurement": "Spontaneous aggregation", "setting": "[1]", "result": "spontaneously formed amyloid fibrils after few hours lag time"}]}
{"compound": "L-ARQ46: androgen receptor fragment with 46 consecutive glutamine residues", "values": [{"measurement": "Spontaneous aggregation", "setting": "[1]", "result": "spontaneously formed amyloid fibrils after few hours lag time"}, {"measurement": "Beta-sheet structure after incubation", "setting": "[2]; TBS pH 7.5, 37 °C, 400 rpm, 24 h", "result": 100, "unit": "%"}, {"measurement": "Secondary structure after disaggregation", "setting": "[2]; freshly disaggregated (100% TFA)", "result": "a mixture of random coil and alpha-helical structure"}]}
{"compound": "SNWKWWPGIFD [QBP1]", "values": [{"measurement": "Effect on aggregation of monomeric ARQ46 (repeat with controls)", "setting": "L-ARQ46 [3]; unseeded, ratio not stated, data not shown", "result": "drastically inhibited the aggregation"}, {"measurement": "Effect in presence of soluble aggregate fragments relative to selected peptides", "setting": "L-ARQ46 [4]; soluble aggregate seeds", "result": "considerably smaller than that of the selected peptides"}, {"measurement": "Therapeutic effect in Drosophila", "setting": "Drosophila", "result": "had a therapeutic effect in Drosophila"}, {"measurement": "Neurological effect in mouse model", "setting": "[5]", "result": "did not yield beneficial neurological effects"}, {"measurement": "Inhibition of polyglutamine aggregation", "setting": "polyglutamine proteins", "result": "claimed to inhibit the aggregation of polyglutamine proteins"}]}
{"compound": "YDTPKHKDKTWPMM [P8]", "values": [{"measurement": "Effect on aggregation of monomeric ARQ46, equimolar (repeat with controls)", "setting": "L-ARQ46 [3]; unseeded, equimolar, data not shown", "result": "slight inhibiting effect"}, {"measurement": "Slope of ThT curve after monomer addition (24 to 26 h), in words", "setting": "L-ARQ46 [4]; 15 or 7.5 µM peptide preincubated 23 h with soluble seeds, TBS, 37 °C, two-fold determination", "result": "the steepest"}, {"measurement": "Lag-phase in presence of soluble aggregates", "setting": "L-ARQ46 [4]; soluble aggregate fragment seeds, TBS, 37 °C, two-fold determination", "result": "no lag-phase observable"}]}
{"compound": "C[C@H](O)[C@@H](NC(=O)[C@@H](CO)NC(=O)[C@@H](Cc1c[nH]c2ccccc12)NC(=O)[C@@H](CCC(N)=O)NC(=O)[C@@H](CO)NC(=O)[C@@H](CCC(N)=O)NC(=O)[C@H](N)CO)C(=O)N1CCC[C@@H]1C(=O)N[C@H](CCC(N)=O)C(=O)NCC(=O)N[C@H](CCCCN)C(=O)N[C@H](Cc1c[nH]c2ccccc12)C(=O)N[C@H](CO)C(=O)N[C@H](Cc1c[nH]cn1)C(=O)N[C@H](Cc1c[nH]c2ccccc12)C(=O)N1CCC[C@@H]1C(=O)N[C@H](CCCNC(=N)N)C(=O)N[C@H](CCCNC(=N)N)C(=O)N[C@H](CCCNC(=N)N)C(=O)O", "note": "[QF2D-2]", "values": [{"measurement": "Fluorescence intensity of the steady state, % of that measured for ARQ46", "setting": "L-ARQ46 [3]; at 90 h, equimolar, 15 µM ARQ46 and 15 µM peptide, TBS pH 7.5, 37 °C, λex 410 nm, λem 482 nm, three-fold determination", "result": "approx. 70%"}, {"measurement": "Reduction of slope compared to QBP1", "setting": "L-ARQ46 [4]; [7]", "result": 86, "unit": "%"}, {"measurement": "Reduction of slope compared with P8", "setting": "L-ARQ46 [4]; [7]", "result": 96, "unit": "%"}, {"measurement": "pKd", "setting": "L-ARQ46 [6]", "result": 4.96}]}
